According to PMC6757289, “Design and Characterization of SGK3-PROTAC1, an Isoform Specific SGK3 Kinase PROTAC Degrader” (ACS Chemical Biology, 2019):

Biological target: T1, SGK3 (Homo sapiens, UniProt Q96BR1)
T1 sequence (Q96BR1 1-496): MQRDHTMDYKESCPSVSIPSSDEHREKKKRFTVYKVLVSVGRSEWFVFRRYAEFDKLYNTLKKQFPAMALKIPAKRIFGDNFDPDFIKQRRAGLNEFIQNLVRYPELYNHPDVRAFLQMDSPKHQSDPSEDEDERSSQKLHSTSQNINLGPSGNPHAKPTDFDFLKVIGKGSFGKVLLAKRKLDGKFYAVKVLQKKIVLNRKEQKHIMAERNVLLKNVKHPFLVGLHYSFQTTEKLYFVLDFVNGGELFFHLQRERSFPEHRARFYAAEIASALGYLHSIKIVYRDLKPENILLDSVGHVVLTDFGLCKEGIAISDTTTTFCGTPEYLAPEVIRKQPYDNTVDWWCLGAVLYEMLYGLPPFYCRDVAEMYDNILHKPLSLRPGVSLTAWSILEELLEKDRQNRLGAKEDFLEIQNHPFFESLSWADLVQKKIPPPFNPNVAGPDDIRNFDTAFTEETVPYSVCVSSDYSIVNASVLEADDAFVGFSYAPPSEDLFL
Assay: SGK3 degradation in HEK293 cells, immunoblot
Assay type: cell-based
Set-up: reduced endogenous SGK isoform or S6K1 expression when administered to HEK293 cells for 48 h; endogenous in cells; host or cells: HEK293; Dmax: dose or concentration left out as unconfirmed
Conditions: for remaining activity at 0.001 µM / remaining activity at 0.01 µM / remaining activity at 0.1 µM / remaining activity at 1 µM / remaining activity at 10 µM: Figure 2; for degradation of SGK3: HEK293, 8 h, cisSGK3-PROTAC1 up to 3 μM, SGK3-PROTAC1 0.1 μM
Method: Figure 1 Design and cellular activity of first generation SGK3 PROTACs. (A) Structure of compound 14H, previously published by Sanofi as an inhibitor of SGK3. (B) Starting material for SGK PROTACs. […] (C) Structures of first generation SGK PROTACs. SGK and E3 ligase targeting motifs were joined by a 3xPEG linker to produce the PROTACs. (D) HEK293 cells were treated for 48 h with increasing concentrations of each PROTAC compound from 0.1 nM to 10 μM. Cell lysates were subjected to immunoblot analysis with the indicated antibodies, and SGK3 protein levels were quantified in Image Studio Lite software (Licor).
Figure 2 Design and cellular evaluation of second and third generation SGK PROTACs. (A) Chemical structure of compounds DAT5–12, expanding upon DAT1. (B) Chemical structure of cisSGK3-PROTAC1. (C) HEK293 cells were treated for 48 h with increasing concentrations of each PROTAC compound from 1 nM to 10 μM. Cell lysates were subjected to immunoblot analysis with the indicated antibodies, and SGK3 protein levels quantified in Image Studio Lite software. (D) HEK293 cells were treated for 48 h with increasing concentrations of each PROTAC compound from 1 nM to 10 μM. Cell lysates were subjected to immunoblot analysis with the indicated antibodies, and SGK3 and S6K1 protein levels were quantified in Image Studio Lite software. TEXT PRINTED IN THE PICTURE: (C) DAT1: % SGK3: 100 (48h Treatment (μM): 0); % SGK3: 94 (48h Treatment (μM): 0.001); % SGK3: 82 (48h Treatment (μM): 0.01); % SGK3: 70 (48h Treatment (μM): 0.1); % SGK3: 52 (48h Treatment (μM): 1); % SGK3: 31 (48h Treatment (μM): 10) | (C) DAT5: % SGK3: 100 (48h Treatment (μM): 0); % SGK3: 104 (48h Treatment (μM): 0.001); % SGK3: 82 (48h Treatment (μM): 0.01); % SGK3: 92 (48h Treatment (μM): 0.1); % SGK3: 73 (48h Treatment (μM): 1); % SGK3: 36 (48h Treatment (μM): 10) | (C) DAT6: % SGK3: 100 (48h Treatment (μM): 0); % SGK3: 105 (48h Treatment (μM): 0.001); % SGK3: 90 (48h Treatment (μM): 0.01); % SGK3: 71 (48h Treatment (μM): 0.1); % SGK3: 44 (48h Treatment (μM): 1); % SGK3: 20 (48h Treatment (μM): 10) | (C) DAT7: % SGK3: 100 (48h Treatment (μM): 0); % SGK3: 77 (48h Treatment (μM): 0.001); % SGK3: 80 (48h Treatment (μM): 0.01); % SGK3: 95 (48h Treatment (μM): 0.1); % SGK3: 37 (48h Treatment (μM): 1); % SGK3: 29 (48h Treatment (μM): 10) | (D) DAT8: % SGK3: 100 (48h Treatment (μM): 0); % SGK3: 97 (48h Treatment (μM): 0.001); % SGK3: 107 (48h Treatment (μM): 0.01); % SGK3: 34 (48h Treatment (μM): 0.1); % SGK3: 24 (48h Treatment (μM): 1); % SGK3: 19 (48h Treatment (μM): 10) | (D) DAT9: % SGK3: 100 (48h Treatment (μM): 0); % SGK3: 105 (48h Treatment (μM): 0.001); % SGK3: 71 (48h Treatment (μM): 0.01); % SGK3: 40 (48h Treatment (μM): 0.1); % SGK3: 11 (48h Treatment (μM): 1); % SGK3: 12 (48h Treatment (μM): 10) | (D) DAT10: % SGK3: 100 (48h Treatment (μM): 0); % SGK3: 100 (48h Treatment (μM): 0.001); % SGK3: 76 (48h Treatment (μM): 0.01); % SGK3: 54 (48h Treatment (μM): 0.1); % SGK3: 11 (48h Treatment (μM): 1); % SGK3: 9 (48h Treatment (μM): 10) | (D) DAT11: % SGK3: 100 (48h Treatment (μM): 0); % SGK3: 96 (48h Treatment (μM): 0.001); % SGK3: 97 (48h Treatment (μM): 0.01); % SGK3: 41 (48h Treatment (μM): 0.1); % SGK3: 32 (48h Treatment (μM): 1); % SGK3: 29 (48h Treatment (μM): 10) | (D) DAT12: % SGK3: 100 (48h Treatment (μM): 0); % SGK3: 106 (48h Treatment (μM): 0.001); % SGK3: 84 (48h Treatment (μM): 0.01); % SGK3: 79 (48h Treatment (μM): 0.1); % SGK3: 32 (48h Treatment (μM): 1); % SGK3: 29 (48h Treatment (μM): 10) DOUBTS OF THE COPYIST ABOUT THIS PICTURE: All % SGK3 values are quantification numbers printed under immunoblot lanes; each was assigned to a concentration by lane position / DAT9 and DAT10, % SGK3: the first numbers are printed run together ('100105', '100100') and were split as 100 | 105 and 100 | 100
Figure 3 Characterization of cellular activities of SGK3-PROTAC1 and cisSGK3-PROTAC1. […]

[1] = HEK293, washout after 24 h of treatment

SMILES | SGK3 degradation efficiency (HEK293, 48 h) | remaining activity at 0.001 µM (HEK293, 48 h) | remaining activity at 0.01 µM (HEK293, 48 h) | remaining activity at 0.1 µM (HEK293, 48 h, 0.1 μM) | remaining activity at 1 µM (HEK293, 48 h, 1 μM) | remaining activity at 10 µM (HEK293, 48 h, 10 μM) | degradation of endogenous SGK3 (HEK293, 0.3 μM, within 2 h) | degradation of SGK3 | reduction of SGK3 levels (HEK293, 48 h, 0.1 μM) | time to increased SGK3 expression after washout [1] | time to return of SGK3 protein to normal levels after washout [1] | Dmax (HEK293, within 8 h, read-out: maximal degradation of SGK3) | DC50 (SGK3 degradation) | time of maximal reduction of SGK3 expression (HEK293, 1 μM) | concentration that maximally reduced SGK3 expression (HEK293, 8 h time point, dose response) | reduction of SGK3 expression (HEK293, 48 h, 1 μM) | reduction of SGK3 expression (HEK293, 48 h, 10 μM)
Cc1ccc(F)c(S(=O)(=O)Nc2ccc(-c3nc(OC[C@H]4CN(CCOCCOCCOCCOCC(=O)N[C@H](C(=O)N5C[C@H](O)C[C@H]5C(=O)NCc5ccc(-c6scnc6C)cc5)C(C)(C)C)CCO4)c4cn[nH]c4n3)cc2)c1 [DAT6] | ++ (“++” = >50% degradation at 1 μM) | 105% | 90% | 71% | 44% | 20% |  |  |  |  |  |  |  |  |  |  | 
Cc1ccc(F)c(S(=O)(=O)Nc2ccc(-c3nc(OC[C@H]4CN(CCCCCCOCCOCCOCC(=O)N[C@H](C(=O)N5C[C@H](O)C[C@H]5C(=O)NCc5ccc(-c6scnc6C)cc5)C(C)(C)C)CCO4)c4cn[nH]c4n3)cc2)c1 [SGK3-PROTAC1] | ++++ (“++++” = >60% degradation at 0.1 μM) | 97% | 107% | 34% | 24% | 19% | 50% | markedly reduced SGK3 expression | 65% | 1 h | 10 h | 80% | < 100 nM |  |  |  | 
Cc1ccc(F)c(S(=O)(=O)Nc2ccc(-c3nc(OC[C@H]4CN(CCOCCOCC(=O)N[C@H](C(=O)N5C[C@H](O)C[C@H]5C(=O)NCc5ccc(-c6scnc6C)cc5)C(C)(C)C)CCO4)c4cn[nH]c4n3)cc2)c1 [DAT5] | + (“+” = >50% degradation at 10 μM) | 104% | 82% | 92% | 73% | 36% |  |  |  |  |  |  |  |  |  |  | 
COc1ccc(Cl)c(S(=O)(=O)Nc2ccc(-c3nc(OC[C@H]4CN(CCCCCCOCCOCCOCCOCC(=O)N[C@H](C(=O)N5C[C@H](O)C[C@H]5C(=O)NCc5ccc(-c6scnc6C)cc5)C(C)(C)C)CCO4)c4c(C)n[nH]c4n3)cc2)c1 [DAT11] | +++ (“+++” = >50% degradation at 0.1 μM) | 96% | 97% | 41% | 32% | 29% |  |  |  |  |  |  |  |  |  |  | 
Cc1ccc(F)c(S(=O)(=O)Nc2ccc(-c3nc(OC[C@H]4CN(CCOCCOCCOCC(=O)N[C@H](C(=O)N5C[C@H](O)C[C@H]5C(=O)NCc5ccc(-c6scnc6C)cc5)C(C)(C)C)CCO4)c4cn[nH]c4n3)cc2)c1 [DAT1] | + (“+” = >50% degradation at 10 μM) | 94% | 82% | 70% | 52% | 31% |  |  |  |  |  |  |  | ≤ 16 h | 2 µM | 60% | 75%
Cc1ccc(F)c(S(=O)(=O)Nc2ccc(-c3nc(OC[C@H]4CN(CCCCCCOCCOCCOCC(=O)N[C@H](C(=O)N5C[C@@H](O)C[C@H]5C(=O)NCc5ccc(-c6scnc6C)cc5)C(C)(C)C)CCO4)c4cn[nH]c4n3)cc2)c1 [cisSGK3-PROTAC1] |  |  |  |  |  |  |  | failed to induce degradation of SGK3 |  |  |  |  |  |  |  |  | 
Cc1ccc(F)c(S(=O)(=O)Nc2ccc(-c3nc(OC[C@H]4CN(CCCCCCOCCCCCCOCC(=O)N[C@H](C(=O)N5C[C@H](O)C[C@H]5C(=O)NCc5ccc(-c6scnc6C)cc5)C(C)(C)C)CCO4)c4cn[nH]c4n3)cc2)c1 [DAT10] | ++ (“++” = >50% degradation at 1 μM) | 100% | 76% | 54% | 11% | 9% |  |  |  |  |  |  |  |  |  |  | 
Cc1ccc(F)c(S(=O)(=O)Nc2ccc(-c3nc(OC[C@H]4CN(CCOCCOCCOCCOCCOCC(=O)N[C@H](C(=O)N5C[C@H](O)C[C@H]5C(=O)NCc5ccc(-c6scnc6C)cc5)C(C)(C)C)CCO4)c4cn[nH]c4n3)cc2)c1 [DAT7] | ++ (“++” = >50% degradation at 1 μM) | 77% | 80% | 95% | 37% | 29% |  |  |  |  |  |  |  |  |  |  | 
